From patent US10709769B2, “Use of endostatin peptides for the treatment of fibrosis” (University of Pittsburgh—Of the Commonwealth System of …, priority 2009, dated 2020)

Experiments:
mouse skin = assay: TGF-β-induced dermal fibrosis in vivo in mouse skin
Description: FIG. 9. E4 reverses TGF β-induced dermal fibrosis even if administered 3 days following TGF-β.
CB57BL6/J male mice were purchased from The Jackson Laboratory (Bar Harbor, Me.). Human rE (10 μg/ml) or Endostatin peptides (10 μg/ml) in combination with TGF-β (10 ng/ml), or TGF-β alone were injected intradermally on the back of mice in a total volume of 100 μl 1×PBS. Mice were injected in two different skin sites and sacrificed one week post-injection. Skin surrounding the injection site was harvested and fixed in 10% formalin prior to embedding in paraffin.
(§1) Six μm sections of paraffin-embedded human and mouse skin tissues were stained with hematoxylin and eosin (H&E). In some experiments, sections were stained with Masson trichrome which identifies collagens. Images were taken on a Nikon Eclipse 800 microscope. The thickness of the dermis was measured in 6 random fields of each section using the image/J® software. Data are shown in arbitrary units.
E4, a peptide representing the carboxy terminus of human endostatin, can attenuate fibrosis triggered by multiple fibrogenic factors. The anti-fibrotic effects of E4 can be detected whether administered concomitantly with or following the fibrogenic trigger. The efficacy of E4 was confirmed in […] pre-clinical models of fibrosis: a) bleomycin-induced dermal fibrosis in vivo in mouse skin, b) TGF-β induced dermal fibrosis in mouse skin, and c) bleomycin-induced pulmonary fibrosis. E4 peptide or a control peptide (E1; representing the amino terminal region of endostatin) were administered at the same time as TGF-β or bleomycin or 3-4 days following TGF-β or bleomycin. Mice were sacrificed one and two weeks after TGF-β-initiation of dermal fibrosis, and two and three weeks after bleomycin-induced pulmonary fibrosis. Two different modes of administration of the E4 peptide were also tested. It was confirmed that intraperitoneal and intratracheal administration was effective. The amount of E4 that was administered ws 10 μg/ml in a total volume of 100 μl for skin and IP injections and 50 μl for IT administration.

MMP-2 = MMP-2 gelatin zymography in primary human lung fibroblasts; format: cell-based
Description: FIG. 14A-14B. A. E4 reduces fibrosis in vitro by inducing MMP-2 activity in primary human lung fibroblasts, thus resulting in increased degradation of collagen and other matrix proteins. Digital image of a gelatin zymography gel showing increased MMP-2 activity when primary human lung fibroblasts are treated with E-4 following TGFβ (lane 4). Lane 1: Vehicle (DMSO); Lane 2: E-4; Lane 3: TGF 3; Lane 4: TGF 3 followed by E4. B. Digital image showing that both total and active MMP-2 levels are increased in cells treated with TGFbeta and E-4.

lysyl oxidase (LOX) = assay: LOX immunohistochemistry in lung sections of bleomycin-treated mice; format: in vivo, mouse; details: lung sections of mice treated with bleomycin with or without E4
Excerpt: FIG. 12. […] Lung sections of mice treated with BLM with or without E4 were used in immunohistochemistry to detect LOX. The sections shown are control IgG, phosphate buffered saline, bleomycin and bleomycin followed by treatment with E4.
The results also evidenced that E4 exerts its anti-fibrotic effects via multiple pathways. E4 reduces levels of lysyl oxidase (LOX), and enzyme responsible for the cross-linking of collagen, elastin, and other extracellular matrix (ECM) molecules and thus the stabilization of the ECM.

human skin explants = assay: Ex vivo human skin fibrosis organ culture, dermal thickness; format: cell-based
Description: Human abdominal skin was obtained from corrective plastic surgery. As previously described (Yasuoka et al., The Open Rheumatol J 2008; 2:17-22), subcutaneous fat tissue was removed uniformly and skin tissue was cut into 1.5 cm×1.5 cm sections. The following were injected intradermally in a total volume of 100 μl 1×PBS: rE alone (1-10 μg/ml), endostatin peptides alone (10 μg/ml), rE or endostatin peptides (1-20 μg/ml) in combination with TGF-β (10 ng/ml), and TGF-β alone (10 ng/ml). In some experiments, human skin was first injected with TGF-β for 48 h followed by recombinant endostain (rE) administration in the same injection site as TGF-β. Explants containing complete epidermal and dermal layers were cultured in an air liquid interface with the epidermal and keratin layers side up and exposed to air. The culture medium was replaced every other day. After 1 or 2 weeks, skin tissue corresponding to an area with 8-mm diameter centered around the injection site was harvested using disposable 8-mm Acu Punch® (Acuderm inc., Lauderdale, Fla.). Skin tissue was fixed in 10% formalin prior to embedding in paraffin.
as §1

[1] = system: human primary skin fibroblasts; assay: TGF-β-induced ECM production in primary skin (dermal) fibroblasts, western blot; format: cell-based; details: dermal fibroblasts from healthy controls, SSc or morphea patients
Description: Human primary lung and skin fibroblasts were cultured. The explanted lungs of normal organ donors, patients with SSc or IPF, and clinically involved skin of SSc patients, a morphea patient and healthy donors were used for primary fibroblast culture. Approximately 2-cm pieces of peripheral lung and skin were minced and fibroblasts were cultured in Dulbecco's modified Eagle's medium (DMEM; Mediatech, Herndon, Va.) supplemented with 10% FBS, penicillin, streptomycin, and anti-mycotic agent, as previously described (Feghali et al., Arthritis Rheum 1999; 42:1451-7). All the cells were used between passages 3-6.
Cellular lysates were obtained from cultured fibroblasts as previously described (Pilewski et al., Am J Pathol 2005; 166:399-407). […] Cellular lysates were analyzed by western blot. Signals were detected following incubation with horseradish peroxidase-conjugated secondary antibody and chemiluminescence (Perkin Elmer Life Sciences, Inc., Boston, Mass.). The intensity of individual bands with expected molecular sizes was semi-quantitatively analyzed using the image/J® software available at on the internet (/rsb.info.nih.gov/ij/index.html), and normalized to individual GAPDH intensity. […]

H-^133SYCETWRTEAPSATGQASSLLGGRLLGQSAASCHHAYIVLCIENSFMT^180-CONH2 (H-SYCETWRTEAPSATGQASSLLGGRLLGQSAASCHHAYIVLCIENSFMT-NH2; cysteine pairing not given here; UniProt P39060 1704-1751, looked up, fragment) [E4, amino acids 133-180 of human endostatin; differs from E3 by the presence of a carboxy-terminal amide]
TGFbeta induced dermal fibrosis, delayed treatment (mouse skin; TGFβ day 1, peptide IP at day 3, harvested day 7): significant decrease
TGF-β-induced dermal fibrosis (dermal thickness) (mouse skin; mice, intradermal, 10 μg/ml with TGF-β 10 ng/ml, one week post-injection): prevented
MMP-2 activity (MMP-2; E-4 following TGFβ, gelatin zymography): increased
total and active MMP-2 levels (MMP-2; cells treated with TGFbeta and E-4): increased
levels of lysyl oxidase (LOX) (lysyl oxidase (LOX)): reduces
TGF-β-induced skin fibrosis (dermal thickness), dose response (human skin explants; 1, 5, 10, 20 μg/ml with TGF-β 10 ng/ml, effect at 5-20 μg/ml): clearly ameliorated
dermal thickness, baseline effect (human skin explants; injected alone without TGF-β, rE 1, 5, 10 μg/ml, peptides 10 μg/ml): tendency towards reduction
development of fibrosis as measured by dermal thickness (human skin explants; peptides 10 μg/ml with TGF-β 10 ng/ml, vs TGF-β alone): significantly abolished
TGF-β-induced ECM production (FN, Col1α1) [1]: reduced
